Source: US20060183802A1, “Compositions and methods for treating amyotrophic lateral sclerosis (ALS)” (priority 2004, published 2006)
In brackets after ≈: the same amount, converted by molar mass.

Assays:
[1] = test system: SOD (wild type and A4V, G85R and G37R mutants); test: Copper/H2O2-induced oxidative aggregation of demetallated SOD after Cys-111 modification, monitored by light scattering; format: biochemical, human
Method: Unmodified SOD aggregation. SOD aggregation of SOD with an umodified Cys-111 residue was achieved by mixing 10 μM SOD with 0.8 mM copper sulfate (CuSO4) and 10 mM hydrogen peroxide (H2O2) in 20 mM Tris at 37° C. (pH 7.4). SOD aggregation of SOD modified at the Cys-111 residue.
Modified (Blocked […] Residue) aggregation. Treatment with iodoacetate and DTNB was carried out at 0.73 mg/ml demetallated SOD, 20 mM Tris, 20 mM phosphate with 10 mM modifying reagent in each at pH 7.4 and room temperature for one hour. In the case of DTNB treatment, both protein solution and the buffer were nitrogen fused prior to the reaction. Modified SOD samples were then dialyzed against 20 mM Tris buffer at pH 7.8 in room temperature. All of the modified SOD samples were prepared fresh just before inducing oxidation with copper (0.8 mM) and hydrogen peroxide (10 mM).
Kinetic Studies of modified and unmodified SOD aggregation. To monitor the kinetics of aggregation, the SOD solution was equilibrated in a quartz cuvette at 37° C. for 5 min within the sample chamber of a Hitachi F-4500 fluorimeter, at which point a freshly made solution containing the CuSO4, H2O2, and Tris was added. Using a small stir bar, the solution was mixed for 5 s, and the light scattered at a 90° angle was immediately monitored for 1 h at an excitation and emission wavelengths of 350 with 2.5 nm slit width. […]

cardiomyopathic hamsters = details: dietary administration; cited from earlier work
[2] = according to MSDS; cited from earlier work
SOD = test: In vitro oxidative aggregation of SOD in presence of orotate; format: biochemical, human
Excerpt: The scope of the current study that led to the discovery of anti-aggregation effect of orotate was based the inventor's aggregation model involving the open dimers (FIG. 9) as discussed in Example 2.

[3] = test system: Cu/Zn superoxide dismutase; details: rat liver, dietary administration; cited from earlier work
mouse models = details: dietary administration; cited from earlier work

Compound: O=C(O)c1cc(SSc2ccc([N+](=O)[O-])c(C(=O)O)c2)ccc1[N+](=O)[O-] [DTNB, dithionitro benzoic acid]
- aggregation of SOD after treatment with sulfhydryl blocking reagent ([1]; 10 mM modifying reagent, pH 7.4, one hour, then 0.8 mM copper, 10 mM H2O2, WT, A4V, G85R, G37R apo SOD): inhibited

Compound: O=C(O)CI [iodoacetate]
- aggregation of SOD after treatment with sulfhydryl blocking reagent ([1]; pH 7.4): inhibited

Compound: O=C(O)c1cc(=O)[nH]c(=O)[nH]1 [orotic acid]
- conditions of cardiomyopathic hamsters (cardiomyopathic hamsters): improve
- solubility in water [2]: 7 mM (≈ 1090 µg/mL)
- anti-aggregation activity across SOD variants (SOD; different variants of SOD with different extent of dimer opening): different level of anti-aggregation activity in different variants of SOD
- effect on in vitro oxidative aggregation of SOD (SOD; in vitro oxidative aggregation): inhibition of in vitro oxidative aggregation
- Cu/Zn superoxide dismutase mRNA level [3]: reduction
- SOD activity [3]: corresponding reduction
- memory and synaptic long-term potentiation (mouse models): improve memory and synaptic long-term potentiation
